Patent publication US20190350955A1, “METHODS AND PHARMACEUTICAL COMPOSITIONS FOR THE TREATMENT OF CARDIOMYOPATHIES” (INSERM (Institut National de la Sante et de la Recherche …, priority 2016, published 2019)

How the values were obtained:
[1] = tested on: citrate synthase; experiment: Citrate synthase activity in left ventricular myocardium; type: in vivo, mouse; conditions: SRF HKO left ventricular myocardium at D50, NR diet
Protocol: SRF^HKO and control (Sf/Sf) mice were administered either rodent maintenance SAFE A04 diet containing 3.10% crude fat. 16.10% crude proteins. 26% starch and 1.9% sugar (Scientific Animal Food Engineering, Paris, France) or SAFE # A04 diet supplemented with NR. NR was provided by Chromadex under brand name NIAGEN (Irvine Calif. USA). The soft pellets were manually prepared every 5 days by mixing 1.65 g of NR into 500 g of powdered SAFE A04 diet and 235 ml of water to reach 2.24 mg of NR/g (wet weight). Control diet was prepared in the same way omitting NR. Mice had ad libitum access to food and water. […]
Frozen tissue samples were weighed, homogenized (Bertin Precellys 24) in ice-cold buffer (50 mg/ml) containing HEPES 5 mM (pH 8.7), EGTA 1 mM, DTT 1 mM and 0.1% Triton X-100. Citrate synthase (CS), activity was determined in homogenized ventricles as previously described (Kuznetsov et al. (2008). Analysis of mitochondrial function in situ in permeabilized muscle fibers, tissues and cells. Journal 3, 965-976). Activities of enzymes were determined by standard spectrophotometric assays. Briefly, for citrate synthase (CS), approximately 0.5 μg of protein were added in 1 ml of Buffer M (Trizma 100 mM (pH 8), 5,5′-dittiobis-(2-Nitrobenzenoic acid) 0.1 mM, Acetyl-CoA 0.3 mM, oxaloacetatic acid 0.5 mM) and the absorbance at 412 nm was measured during 3 min. […]

[2] = tested on: TAC mice; experiment: Echocardiography after transverse aorta constriction (TAC); type: in vivo, mouse; conditions: NR enriched diet 400 mg/kg/day vs untreated TAC group
Protocol: Transverse aorta constriction was performed in 2 month-old male mice under anesthesia (ketamine 100 mg/kg, xylazin 16 mg/kg). Skin was opened above the sternum and the upper part of the sternum was cut on a length of 2 mm allowing the mouse to breath without the need of a ventilator. A surgical suture was passed under the aortic cross between the right brachiocephalic (innominate) artery and left common carotid artery and a 27-½ gauge blunt needle was placed parallel to the wall of the aortic cross as a calibrator. Two loose knots were tied around the aortic cross and the needle. […]
Echocardiography was performed on lightly anesthetized mice given isoflurane (induction with 2% isoflurane 100% O2. and maintained with 0.5% isoflurance 100% O2). Non-invasive measurements of left ventricular dimensions were evaluated using Doppler echocardiography (Vivid 7 Dimension/Vivid7 PRO; GE Medical Systems) with a probe ultrasound frequency range of 9-14 MHz. […] LV fractional shortening (FS) was calculated using the formula: (LVEDD−LVESD)/LVEDD×100. LV myocardial volume (LVV), LV end-diastolic volume (EDV), and end-systolic volume (ESV) were calculated using a half-ellipsoid model of the LV. From these volumes, LV ejection fraction (EF) was calculated using, the formula: (EDV−ESV)/EDV×100. H/R ratio was calculated by the formula (PWThd+IVSThd)/LVEDd.

In the case of `NC(=O)c1ccc[n+]([C@@H]2O[C@H](CO)[C@@H](O)[C@H]2O)c1` [NR, nicotinamide riboside], the citrate synthase activity [1] is reported as “protected against the decline”, the “drop in LVEF triggered by TAC” value [2] is reported as “limits” and the “thickening of the interventricular septum (IVSTh) triggered by TAC” value [2] is reported as “limits”.
